Test results as given in article PMC7335359, “Design and Synthesis of Dihydroxamic Acids as HDAC6/8/10 Inhibitors” (Chemmedchem, 2020).

Assays:
HDAC10 [1] = target: T1, HDAC10 (Homo sapiens, UniProt Q969S8); test: ligand displacement TR-FRET assay, HDAC10; assay type: binding; set-up: host or cells: Sf21 insect cells (baculovirus); conditions: ligand-displacement FRET assay; read-out: HDAC10 pIC50 (converted)
T1 sequence (Q969S8 1-669): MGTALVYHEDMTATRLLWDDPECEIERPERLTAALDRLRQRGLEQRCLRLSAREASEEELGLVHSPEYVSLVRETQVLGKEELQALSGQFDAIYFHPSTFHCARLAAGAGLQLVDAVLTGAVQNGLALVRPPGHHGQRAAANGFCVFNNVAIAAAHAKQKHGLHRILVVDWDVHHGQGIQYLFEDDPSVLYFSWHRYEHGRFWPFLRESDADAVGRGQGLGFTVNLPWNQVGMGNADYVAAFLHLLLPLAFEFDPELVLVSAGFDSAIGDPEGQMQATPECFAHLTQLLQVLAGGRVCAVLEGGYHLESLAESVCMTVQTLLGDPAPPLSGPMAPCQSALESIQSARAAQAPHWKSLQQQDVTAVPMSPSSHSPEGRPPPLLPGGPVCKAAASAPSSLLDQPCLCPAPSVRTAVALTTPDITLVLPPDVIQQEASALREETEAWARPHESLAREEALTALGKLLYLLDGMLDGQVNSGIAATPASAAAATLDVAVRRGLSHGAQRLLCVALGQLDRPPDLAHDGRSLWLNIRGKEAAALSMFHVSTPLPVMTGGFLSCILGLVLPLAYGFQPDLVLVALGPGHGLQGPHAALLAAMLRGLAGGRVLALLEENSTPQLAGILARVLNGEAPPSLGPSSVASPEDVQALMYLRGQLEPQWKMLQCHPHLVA
Description: Expression and purification of TwinStrepII‐GST‐HDAC10: A synthetic gene encoding TwinStrepII‐GST‐HDAC10 (human) was ordered from GeneArt (Thermo Fischer Scientific) and subcloned into the pFastBac1 vector. The resulting construct was used for transposition in E. coli DH10EMBacY cells. The isolated bacmid DNA was then used to generate the recombinant baculovirus. For protein expression, 10 mL of baculovirus was added to 1 L of Sf21 cells at a density of 1×10^6 cells/mL. The infected Sf21 cells were grown for 72 h in Sf‐900 III SFM medium (Thermo Fischer Scientific) at 27 °C. Cells were harvested by centrifugation and re‐suspended in running buffer (100 mM Tris pH 8.0, 150 mM NaCl, 1 mM EDTA and 1 mM DTT) supplemented with 10 mM MgCl2, benzonase and cOmplete protease inhibitors (Merck). […] The clarified lysate was then loaded onto a 5 mL Strep‐Tactin Superflow high capacity column (IBA) pre‐equilibrated in running buffer. After sample loading and washing, the TwinStrepII‐GST‐HDAC10 protein was eluted in running buffer supplemented with 5 mM desthiobiotin (IBA). The elution fractions containing TwinStrepII‐GST‐HDAC10 were pooled and concentrated before being injected onto a HiLoad 16/600 Superdex 200 pg size exclusion chromatography column (GE Healthcare) pre‐equilibrated with 25 mM HEPES/NaCl pH 7.5, 150 mM NaCl, 0.5 mM EDTA, 1 mM DTT and 10 % glycerol. Samples were eluted from the size exclusion chromatography column in the same buffer, flash‐frozen in liquid N2 and stored at −80 °C.
The TR‐FRET measurements of the monohydroxamic acids in this manuscript were measured in the original assay format, which is described directly below this paragraph. The TR‐FRET measurements of the dihydroxamic acids in this manuscript were measured in the modified format, which is described two paragraphs below this one.
The concentrations of reagents in 10 μL final assay volume were 3 nM GST‐HDAC10, 30 nM “Tubastatin‐Alexa647‐Tracer” and 0.5 nM Eu‐anti‐GST. GST‐HDAC10 and LanthaScreen™ Eu‐anti‐GST Antibody were purchased from Life Technologies, and the Tubastatin‐Alexa647‐Tracer was synthesized in‐house as previously described.19 An 11‐fold 1 : 3‐serial dilution of compounds starting at 2 mM was prepared in 384 well pp‐plates (Greiner) from 10 mM stocks in DMSO and 1 μL was transferred to assay plates. Nine μL of the reagent‐mix was added and the plate was incubated for 1 h at RT before TR‐FRET was measured in an EnVision™ plate reader equipped with a TR‐FRET Laser module. […] Percent inhibition was calculated for each well from negative control wells containing 2 % DMSO and positive control wells containing 20 μM SAHA. The resulting dose‐response curves were fitted in ActivityBase (IDBS) using a four‐parameter logistic model and pIC50‐values were calculated.
After drug dosing to the premixed assay reagents in buffer, plates were shaken (800 rpm orbital shaker, 30 s), centrifuged (300 g, 1 min) and incubated at room temperature in the dark for 60 min. TR‐FRET was measured with a CLARIOstar (BMG Labtech) plate reader, equipped with TR‐FRET filters.

HDAC8 = target: T2, HDAC8 (Homo sapiens, UniProt Q9BY41); test: HDAC-Glo I/II enzymatic assay, HDAC8; assay type: biochemical; conditions: read-out: HDAC8 pIC50 (converted)
T2 construct: purchased BPS Bioscience 50008
T2 sequence (Q9BY41 1-377): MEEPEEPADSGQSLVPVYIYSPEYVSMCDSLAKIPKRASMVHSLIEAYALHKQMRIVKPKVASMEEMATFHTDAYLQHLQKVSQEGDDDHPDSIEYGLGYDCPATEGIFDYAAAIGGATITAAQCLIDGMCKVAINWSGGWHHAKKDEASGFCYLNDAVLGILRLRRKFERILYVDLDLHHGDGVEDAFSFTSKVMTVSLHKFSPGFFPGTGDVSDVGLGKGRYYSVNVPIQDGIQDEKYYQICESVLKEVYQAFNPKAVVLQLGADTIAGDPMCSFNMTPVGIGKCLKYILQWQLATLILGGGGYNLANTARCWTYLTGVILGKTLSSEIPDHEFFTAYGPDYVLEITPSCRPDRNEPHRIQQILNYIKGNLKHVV
Description: Inhibitors were tested at eight serial dilutions in triplicate ranging from 50 μM–86,7 pM (HDAC6) or 100 μM–8,67 nM (HDAC1,2,3,8). Drug dosing was performed from 10 mM and 0.1 mM DMSO stock solutions with a D300e Digital Dispenser (Tecan). HDACs (7 ng/mL for HDAC1, 10 ng/mL for HDAC2, 200 ng/mL for HDAC3/Ncor2 complex, 100 ng/mL for HDAC6, 200 ng/mL for HDAC8) and inhibitors were incubated together for 30 min at room temperature. After addition of the HDAC‐Glo™ I/II reagent, plates were shaken (800 rpm orbital shaker, 30 s), centrifuged (300 g, 1 min) and incubated at room temperature for 30 min. Luminescence was detected with a CLARIOstar (BMG Labtech) plate reader.

[2] = tested on: acetylation of the HDAC8 substrate SMC3; test: Western blot of SMC3 acetylation in SK-N-BE(2)C cells; assay type: cell-based; conditions: relative to solvent control
Description: Western blot analysis of SMC3, tubulin and histone H3 acetylation: For the analysis of protein acetylation, 1.5–2×10^6 SK‐N‐BE(2)‐C cells were seeded per 10 cm dish and allowed to adhere overnight. Cells were treated for 18 h (Figure 4B) or 6 h (Figure 4E) with inhibitors at concentrations indicated in the respective figure. […] Cell debris was removed by centrifugation (15 000 g for 10 min at 12 °C).

HDAC10 [3] = target: T1, HDAC10; set-up: host or cells: Sf21 insect cells (baculovirus); method as in PMID 30964290; conditions: previously shown; cited from earlier work
[4] = tested on: SK‐N‐BE(2)C neuroblastoma cell line; test: SK-N-BE(2)C cell viability assay (CellTiter-Blue); assay type: cell-based; conditions: SK-N-BE(2)C cells
Description: Cell viability assay: SK‐N‐BE(2)C cells were cultured in Dulbecco's modified Eagle medium (DMEM, Lonza, Basel, Switzerland) supplemented with 10 % fetal calf serum (FCS, Sigma‐Aldrich) and 1 % non‐essential amino acids (NEAA, Lonza). SK‐N‐BE(2)C cells were seeded from a confluent flask into 96‐well plates in 100 μL full growth medium at a density of 5×10^3 cells per well the day before treatment. Cells were treated in triplicates with drug concentrations as indicated in the respective figure. Drugs were dosed from 50 mM and 200 mM stock solutions with a D300e Digital Dispenser (Tecan) and DMSO concentrations were normalized to 0.2 % for all wells. Plates were shaken (1000 rpm orbital shaker, 30 s) and incubated under standard culture conditions for 72 h. To each well 20 μL of CellTiter‐Blue® reagent (G8081, Promega) was added, plates were shaken (600 rpm orbital shaker, 20 s) and incubated at 37 °C overnight. Fluorescence was measured (extinction/emission: 570 nm/590 nm) on a FluoStar Optima (BMG Labtech) plate reader. Cell viability was normalized with untreated positive controls and cell‐free negative controls. IC50‐values were calculated as described in the BRET assay.

[5] = tested on: lysosomal staining with LysoTracker DND‐99 (HDAC10 knockdown phenotype); test: LysoTracker assay in SK-N-BE(2)C cells; assay type: cell-based; conditions: 10 μM inhibitor, normalized to DMSO
Description: LysoTracker assay: SK‐N‐BE(2)‐C cells were seeded into 6‐well dishes at a density of 1.5×10^5 cells per well. Cells were treated with inhibitor over night at concentrations indicated in the figure and stained the following day for 1 h with 50 nM LysoTracker® Red DND‐99 in medium under standard cell culture conditions. Cells were washed with ice‐cold RPMI without phenol‐red and trypsinized for 3 min at 37 °C. Detached cells were centrifuged for 3 min at 8600 g and re‐suspended in ice‐cold RPMI without phenol red. Mean LysoTracker fluorescence was quantified on a BD FACSCanto II platform using the PE filter setting. Data were normalized to mean LysoTracker fluorescence of solvent (DMSO) treated cells.

HDAC10 [6] = target: T1, HDAC10; test: cellular BRET HDAC10 target engagement assay (stably transfected HeLa cells); assay type: cell-based; set-up: host or cells: HeLa (stably transfected mono-clones); conditions: cellular target engagement, one experiment in triplicate; read-out: HDAC10 BRET pIC50 (converted)
Description: Production of mono‐clones stably expressing HDAC‐nanoBRET proteins: Plasmids expressing a fusion of HDAC10 with nanoluciferase were obtained from Promega (N2170). HeLa cells (0.75×10^6) were seeded in a 6 cm dish and after 24 h were transfected with a mix of 10 μg plasmid and 3 μL Fugene in 200 μL OptiMEM. In detail, cells were washed with pre‐warmed OptiMEM and subsequently overlaid with 2.3 mL of OptiMEM. After addition of 200 μL transfection mix, cells were incubated for 24 h at 37 °C. Cells were than trypsinized and 0.2×10^5 cells were seeded into both 10 cm and 15 cm dishes. Transformants were selected with 1 mg/mL G‐418 for 6 days with a media change after 3 days. Clones which formed colonies were picked by rinsing plates with 3 mL Trypsin/EDTA (Sigma T3924) followed by a 2 min incubation with 300 μL Trypsin/EDTA at 37 °C. Colonies were then loosened and aspirated with a 10 μL filter tip and transferred to 24‐well plates containing selection medium.
Culture of stable BRET cell lines: Stably transfected HeLa cells were cultivated under sterile conditions in polystyrene cell culture flasks (658170, Greiner) at 37 °C and 5 % CO2 in a humidified atmosphere. DMEM growth medium (D6049, Sigma) was supplemented with 10 % FCS (FBS‐12A, Capricorn Scientific), 1 % penicillin‐streptomycin (P4333, Sigma) and 1 mg/mL Geneticin (2039.3, Roth). At confluency, cells were passaged by removing old medium, DPBS (14190‐094, gibco) wash, trypsination (T4049, Sigma) and seeding in fresh growth medium.
BRET assay: The intracellular target engagement assay on HDAC10 was performed as described by the kit manufacturer in a 96‐well plate (3600, Corning) format with 1.9×10^4 cells per well and a tracer concentration of 0.3 μM. […] Drug dosing was performed from 10 mM and 1 mM DMSO stock solutions with a D300e Digital Dispenser (Tecan), DMSO concentrations were normalized to 0.5 % for all wells. Assay plates were incubated at 37 °C for 2 h followed by measurement of 450 nm and 650 nm luminescence (80 nm bandwidth) at room temperature with a CLARIOstar (BMG Labtech) plate reader 2 min after NanoLuc substrate addition.

SMILES	IC50 (HDAC10 [1]) [nM]	IC50 (HDAC8) [nM]	other results
O=C(NO)c1ccc(Cn2ncc3ccccc32)cc1 [Compound 1f]	234	389	
COc1ccc(Cn2nc(CN(C)C)c3ccc(C(=O)NO)cc32)cc1 [Compound 2g]	6920	29.5	acetylation of SMC3 (HDAC8 substrate), Western blot [2]: increased acetylation
COc1ccc(Cc2cn(CCN(C)C)c3ccc(C(=O)NO)cc23)cc1 [Compound 2e]	661	43.7	
O=C(NO)c1ccc(Cn2ccc3ccccc32)cc1 [Compound 1a]	66.1	380	
COc1ccc(Cc2c[nH]c3ccc(C(=O)NO)cc23)cc1 [Compound 2d]	3160	69.2	
CN(C)Cc1cn(Cc2ccc(C(=O)NO)cc2)c2ccccc12 [Compound 1b]	5.25	955	selectivity for HDAC10 over HDACs 1, 2, and 3 (HDAC10 [3]): > 100 fold
COc1ccc(Cn2c3c(c4ccc(C(=O)NO)cc42)CN(C)CC3)cc1 [Compound 2c]	6460	141	
COc1ccc(Cn2ncc3ccc(C(=O)NO)cc32)cc1 [Compound 2f]	19100	20.9	
COc1ccc(Cn2cc(CN(C)C)c3ccc(C(=O)NO)cc32)cc1 [Compound 2b]	1620	49	
COc1ccc(Cn2ccc3ccc(C(=O)NO)cc32)cc1 [Compound 2a]			cytotoxicity (extent of effect) ([4]; Figure S1): not fully cy totoxic; Emax ([4]; Figure S1, read-out: maximum effect, cell growth inhibition): 62%; EC50 ([4]; read-out: EC50 dose-response curve (Figure S1)): 8100 nM; acetylation of SMC3 (HDAC8 substrate), Western blot [2]: increased acetylation
CN1CCc2c(c3ccccc3n2Cc2ccc(C(=O)NO)cc2)C1 [Compound 1c, reference compound]			lysosomal staining with LysoTracker DND-99 (HDAC10 knockdown phenotype) [5]: effective; cytotoxicity (extent of effect) ([4]; Figure S1): fully cytotoxic
O=C(NO)c1ccc(Cc2c[nH]c3ccccc23)cc1 [Compound 1d, 4-((1H-indol-3-yl)methyl)-N-hydroxyb en zamide]	27.5		IC50 (HDAC10 [6]): 39.8 nM
